The structures appear in SMILES notation. Read-outs that look alike come from different tables or passages of the source.

Consider one compound from patent publication US7470821B2, “Aldolase-inhibiting aromatic compounds” (Valorisation-Recherche, Limited Partnership, priority 2003, dated 2008).

The target in the assay is T1, native aldolase from rabbit muscle (RM) (Oryctolagus cuniculus, UniProt P00883).
T1 construct: made in house
T1 sequence (P00883 1-364): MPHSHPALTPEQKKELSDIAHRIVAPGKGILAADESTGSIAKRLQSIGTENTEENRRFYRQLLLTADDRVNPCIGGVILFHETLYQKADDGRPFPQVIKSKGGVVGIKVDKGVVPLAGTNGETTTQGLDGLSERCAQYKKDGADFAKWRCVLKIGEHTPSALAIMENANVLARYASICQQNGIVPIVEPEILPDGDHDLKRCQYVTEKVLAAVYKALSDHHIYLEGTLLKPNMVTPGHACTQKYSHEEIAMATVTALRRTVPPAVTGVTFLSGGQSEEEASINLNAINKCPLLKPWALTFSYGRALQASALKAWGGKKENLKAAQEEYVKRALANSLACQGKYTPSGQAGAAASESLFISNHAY
Nature of the assay: Aldolase activity by coupled enzyme test (TIM/GDH), inactivation and reactivation kinetics. The assay is classed as biochemical. Particulars: for Specific activity: RM 0.2 mg/mL. How it is done: Aldolase activity was measured using a coupled enzyme test system: the triose-phosphate isomerase and glycerol-3-phosphate deshydrogenase (TIM/GDH) system, following oxidation of the NADH (Boehringer-Mannheim, France) at 340 nm, by means of a SAFAS spectrophotometer preheated to 25° C. Testing began with the addition of the substrate (Fru(1.6)P2; […] in final concentration), to complete an aldolase solution created in a triethanolamine buffer (TEA buffer) (100 Mm TEA/HCl; 50 mM NaCl; 1 mM EDTA, pH 7.6; ionic strength 0.15), 0.42 mM of NADH, and containing both enzyme systems (10 μg/mL of GDH and 1 μg/mL of TIM) for a final volume of 1 mL. The construction, overexpression and purification of recombinant aldolase were carried out in accordance with Morris A. J. et al., 1993 (J. Biol. Chem., 265:1095-1100) and Berthiaume L. et al., 1993 (J. Biol. Chem., 268:10826-10835).
The substrate cleavage rate was determined by measuring the decrease in absorbance/minute at 340 nm. The aldolase was dialyzed overnight at 4° C. against a TEA buffer prior to use. The protein concentration was determined by spectrophotometry, using ε280=0.91 mL.mg^−1.cm^−1 as an extinction coefficient. Subunit concentration was determined on the basis of a molecular weight of 159,000 for an aldolase tetramer. • Kinetic Method:
In the extreme situation where k−2 approaches zero, a reversible slow-binding inhibitor may resemble an irreversible one directed toward the active site. In this situation, the equation eqn.(3) is used for this type of inhibition (Meloche H. P., 1967, Biochemistry, 6:2273-2280). The semi-inactivation time of the enzyme (t1/2) is defined as a function of the mutual inhibitor concentration and is graphically represented by a straight line crossing the Y-axis at […] and crossing the X-axis at −1/Ki. • Experimental Protocol:
Native aldolase (5 μM of subunits) is incubated in the presence of FHN-P (0.05-1 mM) in TEA buffer. Enzyme activity is analyzed as a function of time using 10 μl aliquot portions.
Inactivation kinetics follow pseudo-first-order kinetics, and kinetic parameters Ki and k2 are determined by using the equation eqn.(3). To determine the reactivation rate, aldolase (25 μM of subunits in the TEA buffer) is incubated with 500 μM of FHN-P until reaching 90% inactivation. Excess inhibitor is removed by ultrafiltration with a PM-30 Millipore membrane. The enzyme-inhibitor complex is incubated in the TEA buffer (15 μM of subunits at final concentration) containing hexitol-P2 (10 mM). Aliquot portions (10 μl) are removed at different times to measure aldolase activity.
Controls involve repeating the protocol without FHN-P. The reactivation process is analyzed as if it were a first-order reaction. • Monitored by UV-Visible Differential Spectroscopy.

As to `O=Cc1c(O)ccc2cc(OP(=O)(O)O)ccc12` [FHN-P, 5-formyl-6-hydroxy-2-naphthylphosphate], the Specific activity is 5.2 ± 0.4 Unit/mg (FHN-P 250 μM with Fru(1,6)P2 (1 mM), 80 min incubation); 9.9 ± 0.5 Unit/mg (FHN-P 250 μM with hexitol-P2, 80 min incubation); 2.8 ± 0.3 Unit/mg (compound 250 μM, TEA buffer pH 7.6, 80 min incubation, RM alone 12.5 ± 0.5). For the same compound, the Ki by setting is: (dissociation constant of rapidly formed EI complex, from kapp at 0.01-1.5 mM inhibitor, eqn.(3), read-out: Ki) 250 ± 100 µM; (estimated from the values of Table 2, read-out: global dissociation constant Ki*) 0.04 ± 0.02 µM. Under “inactivation constant, enzyme activity kinetics”, the k2 turned out to be 0.07 ± 0.01 min⁻¹.
